Laboratory results as given in PubChem BioAssay (NCI).
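These data come from cells grown in 96-well plates and exposed to compound for 48 hours at five concentrations. Here, GI50 denotes the concentration required for 50% inhibition of growth. TGI is the concentration that stops growth completely.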 Where a SMILES comes first, the peptide text is derived from it. The star is where a group is joined. Bn = c1ccc(C*)cc1

Columns and labels:
Assay in all cases: NCI tumour cell line growth inhibition, 48 h
ACHN renal = system: ACHN renal
HCT-15 colon = system: HCT-15 colon
MCF7 breast = system: MCF7 breast
MDA-MB-231 breast = system: MDA-MB-231 breast
MDA-N = system: MDA-N
RPMI-8226 leukemia = system: RPMI-8226 leukemia
SN12C renal = system: SN12C renal
SNB-19 CNS = system: SNB-19 CNS
CAKI-1 renal = system: CAKI-1 renal

SMILES | TGI (ACHN renal) | TGI (HCT-15 colon) | TGI (MCF7 breast) | TGI (MDA-MB-231 breast) | TGI (MDA-N) | TGI (RPMI-8226 leukemia) | TGI (SN12C renal) | TGI (SNB-19 CNS) | TGI (CAKI-1 renal) | GI50 (ACHN renal) | GI50 (CAKI-1 renal) | GI50 (HCT-15 colon) | GI50 (RPMI-8226 leukemia) | GI50 (SN12C renal) | GI50 (SNB-19 CNS) | GI50 (MCF7 breast) | GI50 (MDA-MB-231 breast)
Nc1nc(Nc2ccccc2)sc1C(=O)c1c[nH]c2ccccc12 | 62.2 µM | 14.7 µM | 26.9 µM | 32.3 µM | 25.3 µM | > 100 µM | 34.4 µM | 20.3 µM |  |  |  |  |  |  |  |  | 
Clc1ccc(Cl)c(SCCCN2CCNCC2)c1 | 31.1 µM | 40.7 µM | 40 µM | 31.7 µM |  | 48.6 µM | 37.8 µM | 34.4 µM | 41.8 µM |  |  |  |  |  |  |  | 
COC(=O)C(CC(C)C)NC(=O)C(N)Cc1ccc(OCc2ccccc2)cc1 (stereo not drawn) (H-Tyr(Bn)-Leu-OMe; configuration not given here) | > 10 µM | > 10 µM |  | > 10 µM | > 10 µM | > 10 µM | > 10 µM | > 10 µM | > 10 µM |  |  |  |  |  |  |  | 
O=C([CH-]C(=O)c1ccccc1)c1ccccc1.O=C([CH-]C(=O)c1ccccc1)c1ccccc1.[O]=[U+2]=[O] | 11.9 µM | 11.1 µM |  |  |  | 6.4 µM | 18.7 µM | 18.9 µM | 15.6 µM | 3.39 µM | 3.79 µM | 2.78 µM | 1.99 µM | 3.33 µM | 3.36 µM |  | 
O=C(O)c1c2c(cc3c1CC1(Cc4ccccc4C1=O)C3)CCC2 (stereo not drawn) | > 100 µM | > 100 µM | > 100 µM | > 100 µM |  | 52.3 µM | > 100 µM | > 100 µM | > 100 µM |  |  |  |  |  |  |  | 
O=C(CNCc1ccccc1)Oc1c(Cl)c(Cl)c(Cl)c(Cl)c1Cl | 51.1 µM | 61 µM | > 100 µM | 69.1 µM |  |  | > 100 µM | > 100 µM | 56.1 µM |  |  |  |  |  |  |  | 
c1ccc(-c2cnc(-c3ccc(-c4ncc(-c5ccccc5)o4)cc3)o2)cc1 | > 100 µM | > 100 µM | > 100 µM | > 100 µM | > 100 µM | > 100 µM | > 100 µM | > 100 µM |  |  |  |  |  |  |  |  | 
CCCCC/C(C=O)=C\c1ccccc1 | > 100 µM | > 100 µM | > 100 µM | > 100 µM |  | > 100 µM |  | > 100 µM | > 100 µM |  |  |  |  |  |  |  | 
CC(C)CCn1nc(N)c2nc3ccccc3nc21 | > 100 µM |  | > 100 µM |  | > 100 µM | > 100 µM | > 100 µM | > 100 µM | > 100 µM |  |  |  |  |  |  |  | 
Cc1cc2nc(-c3cc(C(C)(C)C)c(O)c(C(C)(C)C)c3)[nH]c2cc1C | > 24.6 µM | > 100 µM |  | > 100 µM | > 44.5 µM | > 100 µM | > 100 µM | > 100 µM | > 26.2 µM |  |  |  |  |  |  |  | 
CC1=CC(=O)CC2(C)CCC(C(C)CC(=O)CC(C)C)CC12 (stereo not drawn) | 31.3 µM | > 100 µM | 66.8 µM | > 100 µM |  | 60.8 µM | 32.6 µM | > 100 µM | 30.2 µM |  |  |  |  |  |  |  | 
Nc1nc(Nc2ccc(Cl)cc2)sc1C(=O)c1cccs1 | > 100 µM | > 100 µM | > 100 µM | > 100 µM | > 100 µM | > 100 µM | 50.6 µM | 47.6 µM |  |  |  |  |  |  |  |  | 
COC(=O)C1(Cc2ccc3c(c2)CCC3)Cc2cc3c(cc2C1)CCC3 | > 100 µM | > 100 µM | 58.5 µM | > 100 µM | > 100 µM | > 100 µM | > 100 µM | > 100 µM |  |  |  |  |  |  |  |  | 
COC(=O)C1=C(O)C(C(=O)OC)[C@@]2(O)[C@@H](C(=O)OC)[C@H](C)[C@@H](C)[C@@H]1[C@@H]2C(=O)OC (stereo partly drawn) | > 100 µM | > 100 µM | > 100 µM | > 100 µM | 50.1 µM | > 100 µM | > 100 µM | > 100 µM |  |  |  |  |  |  |  |  | 
CCN1C(=O)N(CC)C2Nn3c(s/c(=C4\C(=O)N(C)c5ccccc54)c3=O)=NC21 (stereo not drawn) | > 100 µM | > 100 µM | > 100 µM | > 100 µM |  | > 100 µM |  |  | > 100 µM | 3.42 µM | 1.05 µM | 1.27 µM | 3.97 µM |  |  | 1.03 µM | 3.42 µM
COc1ccc(-c2csc(NC(=O)CSc3nc(C)c(-c4ccccc4)n3Nc3ccccc3)n2)cc1 | > 100 µM | > 100 µM | > 100 µM | > 100 µM |  | > 100 µM | > 100 µM | > 100 µM | > 100 µM | > 100 µM | 2.5 µM | 6.9 µM | 6.74 µM | 4.03 µM | > 100 µM | 8.25 µM | 13.3 µM
CCOC(=O)C(C)c1nc2c(Cl)c3ncccc3cc2[nH]c1=O (stereo not drawn) | > 100 µM | > 100 µM |  | > 100 µM | > 100 µM | > 100 µM | > 100 µM | > 100 µM | > 100 µM |  |  |  |  |  |  |  | 
O=C(c1ccccc1)N1C(=S)N=C(Nc2ccccc2)C1=Nc1ccccc1 | > 100 µM | > 100 µM |  | > 100 µM | > 100 µM | > 100 µM | > 100 µM | > 100 µM | > 100 µM |  |  |  |  |  |  |  | 
CC(C)(C)OC(=O)n1c(-c2ccccc2F)cc(=O)c2cc3c(cc21)OCO3 | > 58.7 µM | > 31.9 µM | > 100 µM |  |  | 20.7 µM |  | > 100 µM | > 37.3 µM |  |  |  |  |  |  |  | 
